According to PMC9649909, “Wnt-pathway inhibitors with selective activity against triple-negative breast cancer: From thienopyrimidine to quinazoline inhibitors” (Frontiers in Pharmacology, 2022):
Read-outs that look alike come from different tables or passages of the source.

Assays:
BT-20 TNBC cell line = assay: MTT survival assay BT-20; format: cell-based; conditions: Homo sapiens, BT-20; Table S2; read-out: MTT BT-20 IC50
Experimental: (§1) Indicated TNBC cell lines were detached and resuspended at 120,000 cells/ml and added into each well of a transparent 384-well plate in the final volume of 20 µl/well. The cells were maintained in DMEM containing 10% FBS at 37°C, 5% CO2 overnight. Next day, the medium in each well was replaced by 40 μl of the fresh one containing the indicated concentrations of compounds. In case of drug combination experiments, each compound dilution was delivered in corresponding well in 20 μl of medium. […] After incubation for 3–4 days, depending on the cell line, the medium in each well was replaced by 25 μl of 0.5 mg/ml Thiazolyl blue solution in 1xPBS following by incubation for 3 h at 37°C. Then the solution was removed and 25 μl DMSO was added into each well. Absorbance at 510 nm was measured in a Tecan Infinite M200 PRO plate reader.

HCC1806 TNBC cell line = assay: MTT survival assay HCC1806; format: cell-based; conditions: for IC50: Homo sapiens, HCC1806
Experimental: as §1

HCC1395 cells = assay: in vitro; conditions: for HCC1395 Cytotoxicity Efficacy: human
Experimental: (§2) The simplicity of the scaffold combined with synthetic accessibility allows building a library of compounds and performing structure activity relationship (SAR) studies of the three main parts of the molecule: the top part, the linker and the core (Figure 2).
(§3) The synthesized compounds were used to explore SAR of three defined areas of investigation (Figure 2). All compounds were tested in the HCC1395 TNBC cell line using the GSK3β inhibitor to induce β-catenin signaling since 4a acted downstream of GSK3β (Figure 2). Both inhibition of β-catenin signaling measured by the TopFlash reporter and cytotoxicity measured by the Renilla reporter were assessed.
(§4) The Wnt3a or CHIR99021-stimulated luciferase activity in HCC1395 TNBC cell line stably transfected with the TopFlash reporter was analyzed essentially as described for the BT-20 TNBC cell line ([Shaw et al., 2019b]; [Koval et al., 2021]). Reporter cells were seeded at 10,000 cells/well in a white opaque 384-well plate in the final volume of 20 μl of DMEM medium supplemented with 10% FCS. The cells were maintained incubated at 37°C, 5% CO2 overnight for attachment. Subsequently, they were transfected by a plasmid encoding constitutively expressed Renilla luciferase under the CMV promoter overall as described in the manufacturer’s protocol using 12 μg/ml of DNA and 40 μl/ml XtremeGENE nine reagent. The next day, the medium in each well was replaced with a 10 μl of fresh medium containing compound of interest, and, after 1 h of preincubation with the compounds, additional 10 μl of medium supplemented with Wnt3a [purified as described ([Willert et al., 2003]; [Koval and Katanaev, 2011])] or CHIR99021 were added creating respective final concentrations of 2.5 μg/ml or 5 μM of each. In case of other signal transduction reporters, no additional stimulation was performed. Compound dilutions were prepared by serial dilution in DMSO and diluted with the amount of medium necessary to obtain their final concentrations indicated on the figures and tables and maintain concentration of DMSO of 0.5% in all assay points. After overnight incubation, the supernatant in each well was removed, and the luciferase activity was measured as described ([Dyer et al., 2000]; [Huber et al., 2021]; [Pellissier et al., 2021]). The culture medium was completely removed from all wells of the plate. Finally, the luciferase activity of the firefly and Renilla luciferases was detected sequentially in individual wells of a 384-well plate through injection of corresponding measurement solutions and immediate reading (400 ms integration time) in Infinite M Plex multifunctional plate reader with injection module.

in vitro = conditions: human, HCC1395 Cytotoxicity IC50
Experimental: as §2, §3, §4

[1] = tested on: MDA-MB-468 TNBC cell line; assay: MTT survival assay MDA-MB-468; format: cell-based; conditions: Homo sapiens, MDA-MB-468; Table S2
Experimental: as §1

[2] = tested on: β-catenin-dependent Wnt-pathway; assay: TopFlash luciferase reporter assay, CHIR99021-stimulated, HCC1395; format: cell-based; conditions: for Emax / IC50: stimulation with CHIR99021 (GSK3β inhibitor); for Emax: read-out: HCC1395 TopFlash Efficacy; for IC50: read-out: HCC1395 TopFlash IC50
Source text: Both stimulations abolish formation of the destruction complex, a multiprotein complex consisting of Axin, adenomatous polyposis coli (APC), glycogen synthase kinase three beta (GSK3β), and casein kinase one alpha (CK1α). Upon inactivation of the complex, β-catenin accumulates in the cytoplasm and translocates into the nucleus where it interacts with transcription factors. These downstream events are quantified by a Luciferase transcription-based readout assay (TopFlash assay).

HCC1395 TNBC cell line = assay: MTT survival assay HCC1395; format: cell-based; conditions: Homo sapiens, HCC1395; Table S2; read-out: MTT HCC-1395 IC50
Experimental: as §1

[3] = tested on: MDA-MB-231 TNBC cell line; assay: MTT survival assay MDA-MB-231; format: cell-based; conditions: for IC50: Homo sapiens, MDA-MB-231
Experimental: as §1

TNBC cell proliferation = assay: Loewe synergism with docetaxel in anti-proliferative assay (COMBENEFIT); format: cell-based; conditions: Loewe model
Source text: The Wnt-pathway is implicated in chemoresistance to conventional chemotherapies and drives a poor chemotherapy response in a broad range of tumors ([O’Reilly et al., 2015]; [Martin-Orozco et al., 2019]; [Zhong and Virshup, 2020]). To assess how combination with our compounds affects the anti-proliferative capacity of docetaxel—one of the first-line treatments for TNBC ([Mandapati and Lukong, 2022]), we performed the Loewe synergism assessment over a complete dose-response range of both compounds followed by analysis in the COMBENEFIT software in Matlab (Figure 7 and Supplementary Figure S1) ([Di Veroli et al., 2016]).
as §1
The data was visualized analyzed in either GraphPad Prism nine using indicated statistical analysis or in R using gplots package ([Warnes et al., 2009]). Dataset from CCLE ([Barretina et al., 2012]) were used in the study and pathway enrichment analysis was performed by DAVID online tool ([Sherman et al., 2022]). Drug combination data was treated in COMBENEFIT software ([Di Veroli et al., 2016]). Network was built using Cytoscape with StringDB plugin ([Shannon et al., 2003]; [Szklarczyk et al., 2021]).

[4] = tested on: non-cancerous breast epithelial cell line MCF10a; assay: MTT survival assay MCF10a; format: cell-based; conditions: for IC50: Homo sapiens, MCF-10A
Experimental: as §1

[5] = Table S2, read-out: MTT HCC1806 IC50
[6] = Table S2, read-out: MTT MDA-MB-231 IC50
[7] = Table S2, read-out: MTT MCF10 IC50
[8] = Figure 3B heatmap, read-out: IC50, μM (MDA-MB-231)
[9] = Figure 3B heatmap, read-out: IC50, μM (MCF10)
[10] = Figure 3B heatmap, read-out: IC50, μM (HCC1806)

| IC50 ([2]; Homo sapiens, HCC1395, HCC1395) [µM] | Compound | IC50 (BT-20 TNBC cell line) [µM] | IC50 (HCC1806 TNBC cell line; [5]) [µM] | HCC1395 Cytotoxicity Efficacy (HCC1395 cells) [%] | IC50 (in vitro) [µM] | IC50 [1] [µM] | Emax ([2]; Homo sapiens, HCC1395, HCC1395) [%] | IC50 (HCC1395 TNBC cell line) [µM] | IC50 [3, 6] [µM] | MTT MDA-MB-231 Comments ([3]; Table S2) | effect of co-treatment with docetaxel (TNBC cell proliferation) | IC50 [4, 7] [µM] | GSK HCC1395 Renilla Comments (HCC1395 cells) | IC50 [3, 8] [µM] | MTT HCC1806 Comments (HCC1806 TNBC cell line; Table S2) | MTT MCF10 Comments ([4]; Table S2) | also measured |
| --- | --- | --- | --- | --- | --- | --- | --- | --- | --- | --- | --- | --- | --- | --- | --- | --- | --- |
| 1.22 ± 0.33 | Cc1ccc(CNc2ncnc3ccccc23)cc1 [Compound 9f, N-(4-methyl)quinazolin-4-amine] | 6.08 | 23.4 | 100 ± 0 | 8.13 ± 3.8 | 0.83 | 51.6 ± 7.9 | 1.07 | > 10 | Inactive | exclusively synergistic effects | 9.42 |  |  |  |  |  |
| 1.79 | Clc1cccc(CCNc2ncnc3sccc23)c1 [Compound 5l, N-(3-chlorophenethyl)thieno[2,3-d]pyrimidin-4-amine] | 15 | 38.1 |  | > 50 | 37 | 77.5 ± 16.3 | 6.15 | > 50 |  |  | > 50 | Non-toxic | > 10 |  |  | IC50 ([2]; HCC1395): 3.07 ± 2.39 µM |
| 1.88 ± 0.28 | Cc1ccc(C(C)Nc2ncnc3ccccc23)cc1 (stereo not drawn) [Compound 9i, N-(1-(p-tolyl)ethyl)quinazolin-4-amine] |  |  | 38.7 ± 12.8 | 10.3 ± 2.06 |  | 54.6 ± 2.9 |  |  |  | exclusively synergistic effects |  |  |  |  |  |  |
| 0.67 ± 0.13 | Fc1ccc(CNc2ncnc3ccccc23)cc1 [Compound 9d, N-(4-fluoro)quinazolin-4-amine] | 2.92 | > 10 |  | > 50 | 0.8 | 87.1 ± 4.09 | 1.15 | > 10 | Inactive | exclusively synergistic effects | 12.5 |  |  | Inactive |  |  |
|  | COc1cccc(CNc2ncnc3ccccc23)c1 [Compound 9b, N-(3-methoxybenzyl)quinazolin-4-amine] | 1.1 | > 50 |  | > 50 | 2.62 | 82.6 ± 13.5 | 1.05 | > 50 | Inactive |  | 40.1 | Non-toxic | > 10 | Inactive |  |  |
| 4.15 ± 0.91 | Fc1ccc(CNc2ncnc3sccc23)cc1 [Compound 4g, N-(4-fluorobenzyl)thieno[2,3-d]pyrimidin-4-amine] | 1.63 | 2.37 |  | > 50 | 1.46 | 78.6 ± 29.8 | 1.96 | 25.4 |  |  | > 10 | Non-toxic |  |  | Inactive | fold improvement in the activity compared to 4a ([2]; TopFlash IC50 vs 4a): 2 fold; MTT MDA-MB-231 plateau ([3]; Table S2): 100 |
| 1.79 ± 1.45 | Clc1ccc(CCNc2ncnc3sccc23)cc1 [Compound 5m, N-(4-chlorophenethyl)thieno[2,3-d]pyrimidin-4-amine] | 6.72 | 13.1 |  | > 50 | 8.46 | 82 ± 21.1 | 3.7 | > 50 |  | exclusively synergistic effects | > 50 | Non-toxic | > 10 |  | Inactive | IC50 [4, 9]: > 10 µM |
| 0.77 ± 0.44 | COc1ccccc1C(C)Nc1ncnc2sccc12 (stereo not drawn) [Compound 5a, N-(1-(2-methoxyphenyl)ethyl)thieno[2,3-d]pyrimidin-4-amine] | 4.08 | > 10 |  | > 50 | 0.1 | 46.1 ± 3.44 | 0.12 | > 10 | Inactive | exclusively synergistic effects | > 10 | Non-toxic |  | Inactive | Inactive | IC50 (HCC1806 TNBC cell line; [10]): > 50 µM |
| 2.59 ± 1.08 | COc1cc(CNc2ncnc3sccc23)ccc1F [Compound 4p, N-(4-fluoro-3-methoxybenzyl)thieno[2,3-d]pyrimidin-4-amine] | > 50 | > 50 | 41.8 | 4.04 | > 50 | 71.4 ± 11.1 | 13.6 | > 50 |  | exclusively synergistic effects | > 50 |  |  |  |  | IC50 (HCC1806 TNBC cell line; [10]): > 10 µM; GSK HCC1395 Comments ([2]; Table S2): Toxic; IC50 [4, 9]: > 10 µM |
| 42.9 ± 50.2 | Clc1ccccc1CCNc1ncnc2sccc12 [Compound 5k, N-(2-chlorophenethyl)thieno[2,3-d]pyrimidin-4-amine] | > 50 | > 50 |  | > 50 | > 50 | 93.2 ± 10.6 | 4.24 | > 50 |  |  | 43.6 | Non-toxic | > 10 |  |  |  |
